Source: patent US7395112B2, “Method and apparatus for treating tumors using low strength electric fields” (priority 2002, dated 2008)

Key:
B16-F10.9 melanoma [1] = assay: Rechallenge with B16-F10.9 cells of mice cured by LEFCT-EC; format: in vivo, C57BL/6 mice; settings: mice cured by LEFCT-EC with the drug, challenged with 2×10^5 B16-F10.9 cells
Description: FIG. 17 is a data plot depicting the cumulative survival of mice previously bearing B16-F10.9 melanoma and cured by LEFCT-EC with cisplatin or taxol following challenge with B16-F10.9 melanoma cells. Mice cured by LEF-chemotherapy that survived for 120-180 days after initial tumor inoculation, were challenged with 2×10^5 B16-F10.9 cells subcutaneously.
Effect of curative LEFCT-EC treatment on generation of anti B16-F10.9 tumor resistance: The resistance of mice cured of B16-F10.9 melanoma by LEF-chemotherapy was analyzed by challenging such cured mice with a tumorigenic dose of B16-F 10.9 melanoma cells.

B16-F10.9 melanoma [2] = assay: LEFCT-EC in mice bearing subcutaneous B16-F10.9 melanoma; format: in vivo, C57BL/6 mice; settings: for Tumor size (mean ± standard error): 7 days after treatment
Experimental: Animals: C57BL/6 male mice were obtained from the breeding colony of Tel-Aviv University, Israel. Mice were used at 8-12 weeks of age. Animal care and experimentation was carried out in accordance with Tel-Aviv University guidelines.
Melanoma tumor cell line: The highly metastatic, poorly immunogenic B16-F10.9 (F10.9) subclone of the B16 melanoma cell line was used to generate melanoma tumors in mice (Eisenbach L. et al., 1984. Int J Cancer 34:567). Cells were maintained in DMEM supplemented with 100 U/ml penicillin, 100 μg/ml streptomycin, 4 mM glutamine, 1 mM sodium pyruvate, 1% non-essential amino acids and 10% heat-inactivated fetal calf serum (FCS); and were cultured at 37° C. in a humidified incubator in an atmosphere of 7% carbon dioxide and 93% air.
Tumor generation protocol: F10.9 tumors were induced in C57BL/6 mice by subcutaneous injection of 2×10^5 F10.9 cells. Mice were subjected to experimental treatments once tumors reached 5 mm in diameter (about 60-70 mm^3). Chemotherapeutic drugs: The following chemotherapeutic drugs used were: cis-platinum (II) diamminedichloride (cisplatin; #P-4394, Sigma, Israel), dissolved in PBS for injections; Taxol (Mead Johnson Oncology Products, A Bristol-Myers Squibb, USA), obtained as a sterile nonpyrogenic solution containing 6 mg/ml paclitaxel, 527 mg/ml of purified Cremophor EL (polyoxyethylated castor oil) and 5-FU (Abic, Israel).
Low-strength electric field enhanced cancer therapy protocol: Mice were subjected to a single treatment of LEFCT-EC, once tumors reached 5 mm in diameter (11-17 days following tumor cell inoculation). Volumes of up to 100 μl of chemotherapeutic agents were injected into tumor loci, and exposures to electric fields were carried out 3-4 min following intratumoral injection of chemotherapeutic agents. To expose tumors to electric fields, stainless steel electrode needles (Karlsbader insect pins No 0. BioQuip Products, USA) soldered at their brassy ends with thin isolated copper wires were used. Electrodes were inserted to a depth of about 7 mm percutaneously into and in the immediate vicinity of the tumor; one cathode needle in the center of the tumor and three peripheral anodes, at a distance of about 5 mm from the cathode. The needles were connected to an electric pulse generator (Grass S48 Stimulator, USA). The field strength applied was about 40 V/cm; the repetition frequency, 500 Hz; and the pulse width, 180 μs. All mice were anesthetized prior to LEF treatment.
Statistical analysis: Statistical analysis of survival times (Kaplan-Meir test), survival comparisons between groups (Mantel-Cox test) and tumor volume differences between groups (Kolmogorov-Smirnov test) were performed using StatSoft Statistica statistical software. The 10-15% mortality rate in the 5 days following LEF or LEF-chemotherapy was considered as treatment-caused, therefore such cases of mortality were excluded.
Tumor volume determination: performed as described above in Example 1 of the Examples section.

CT-26 colon carcinoma [3] = test system: CT-26 colon carcinoma
CT-26 colon carcinoma [4] = assay: LEF with chemotherapy (LEFCT-EC) in mice bearing 5 mm CT-26 tumors; format: in vivo, BALB/C mice
Experimental: Mice: BALB/C male mice were obtained from the breeding colony of Tel-Aviv University, Israel. Mice were used at 8-12 weeks of age. Animal care and experimentation were performed in accordance with the Tel-Aviv University guidelines.
Tumor: Colon carcinoma tumors were grown in mice with CT-26, a metastatic colon carcinoma cell line induced in a BALB/c mouse by chemical carcinogenesis. Cells were cultured in Dulbecco's modified Eagle's medium (DMEM) supplemented with 100 U/ml penicillin, 100 μg/ml streptomycin, 2 mM L-glutamine; 1 mM sodium pyruvate; 1% non-essential amino acid solution; 10% heat-inactivated fetal calf serum. Cultures were maintained at 37° C. in a humidified incubator with a 5% CO2 atmosphere.
Tumor cell inoculation: Mice were inoculated intracutaneously with 10^5 CT-26 cells suspended in 100 μL PBS into the low lateral side of the back. Local tumor growth was determined by measuring three mutually orthogonal tumor diameters with a caliper. The volume of tumor was calculated using the formula: Vol=D1×D2×D3×π/6, where D1, D2, D3 are three mutually orthogonal tumor diameters.
(§1) Low-strength electric field stimulation: To subject tumors to LEFs, stainless steel needles were used as electrodes. Tumors 5 mm in diameter (about 65 mm^3) were transfixed by electrode needles, with one cathode in the center of the tumor and three or four peripheral anodes. The electrodes were connected to an electric pulse generator and to an oscilloscope. Pulsed LEFs with a repetition frequency of 500 Hz and a pulse width of 180 μs were applied at 20, 40, 60 and 70 V/cm for a duration 12 min or 20 min. The electric pulses were administered 2-4 min following chemotherapeutic drug administration. Mice were anesthetized 10 min before the procedure.
(§2) Chemotherapeutic agents: Bleomycin (Sigma Israel Chemicals Ltd., Israel; Megapharm Ltd., Israel) was kept at a temperature of 2-8° C., and was dissolved in pyrogen-free PBS to a concentration enabling dosages of 50 U/kg body weight prior to use. BCNU was administered at a dosage of 35 mg/kg body weight, and 5-FU (Abic, Israel) was used at a dose of 100 mg/kg body weight.
Anesthesia: Mice were anesthetized using an anesthetic cocktail comprising a dose of imalgen at 100 mg/kg body weight and xylazine hydrochloride at 6.25 mg/kg body weight dissolved in PBS injected intraperitoneally in a volume of 0.25 ml per mouse 10 min prior to LEF treatment.
Statistical analysis: Survival times (Kaplan-Meir test), survival comparisons between groups (Mantel-Cox test), and tumor volume differences between groups were plotted using StatSoft “Statistica” statistical software.
Effect of LEF duration and strength on potentiation of bleomycin for treatment of colon carcinoma: In order to determine the optimal LEFCT-EC/bleomycin therapy for treatment of colon cancer, mice bearing CT-26 tumors were treated with LEFs of 40 V/cm for 12 min, and 20 V/cm for 12 or 20 min with or without administration of bleomycin, and survival was analyzed.

CT-26 colon carcinoma [5] = assay: LEFCT-EC with BCNU in mice bearing large (10 or 15 mm) CT-26 tumors; format: in vivo, BALB/C mice; settings: for time after which all mice were dead: BCNU 35 mg/kg only; for cure rate: LEF 40 V/cm 12 min + BCNU 35 mg/kg
Experimental: as §1, §2
Effect of LEFCT-EC with BCNU on CT-26 development in mice bearing large tumors: In order to examine the effectiveness of LEFCT-EC with BCNU on tumor development in mice with a large tumor burden, mice bearing tumors of 10 mm (about 523 mm^3) or 15 mm in diameter (about 1,760 mm^3). These animals were treated with 4 electrodes placed 7 mm apart.

CT-26 colon carcinoma [6] = assay: CT-26 cells inoculated with splenocytes from mice cured by LEFCT-EC with BCNU; format: in vivo, BALB/C mice; settings: donors cured by LEFCT-EC with BCNU; tumor cells to splenocytes 1:100
Description: Anti-tumor effect of splenocytes from tumor bearing mice cured by LEFCT-EC with BCNU: In order to examine whether development of resistance against challenge with CT-26 tumors in mice cured of such tumors via LEFCT-EC with BCNU is immunologically mediated, normal mice were inoculated with a dose of CT-26 tumor cells mixed with splenocytes from cured animals. […] Thus, curative LEFCT-EC+BCNU treatment of CT-26 tumor bearing mice induces immunological resistance to subsequent growth of such tumors in such mice.

[7] = LEF-CT (drug + LEF), cisplatin 4 mg/kg, bleomycin 8 U/kg, 5-FU 150 mg/kg, taxol 20 mg/kg
[8] = chemotherapy alone, intratumoral, no LEF
[9] = intratumoral drug injection alone, same doses

## N.N.[Cl-].[Cl-].[Pt+2] [cisplatin, cis-platinum (II) diamminedichloride]
B16-F10.9 melanoma [1]
  MST of challenged mice: 48.7 days
B16-F10.9 melanoma [2]; [7]
  Tumor size (mean ± standard error): 83 ± 57 mm^3
B16-F10.9 melanoma [2]; LEF-chemotherapy: intratumoral drug + LEF about 40 V/cm 12 min, 120 days (cisplatin) or 180 days (taxol, bleomycin) after inoculation
  mean survival time (MST): 51.1 days
B16-F10.9 melanoma [2]; LEF-chemotherapy, 120 days after tumor inoculation
  animals tumor free: 13.5%
B16-F10.9 melanoma [2]; [8]
  effect of drug alone on survival: no significant effect
  mean survival time (MST): 29.5 days
B16-F10.9 melanoma [2]; [9]
  Tumor size (mean ± standard error): 1684 ± 204 mm^3
B16-F10.9 melanoma [2]; pooled statement for cisplatin, taxol or bleomycin
  LEFCT-EC treated mice that died two months and later after treatment with pulmonary metastatic foci, free of primary tumor: About 10%

## O=NN(CCCl)C(=O)NCCCl [BCNU]
CT-26 colon carcinoma [3]; after 18 days
  tumor volume of reinoculated mice relative to first-time inoculated mice: about one order of magnitude smaller
CT-26 colon carcinoma [3]; mice cured by LEFCT-EC with BCNU, challenged with 10^5 CT-26 cells
  day by which half of the cured and challenged mice were still alive: ~63 days
CT-26 colon carcinoma [4]; BCNU 35 mg/kg intratumoral + LEF 40 V/cm 12 min, after 52 days, unchanged until day 110
  survival rate: 83%
CT-26 colon carcinoma [4]; BCNU + LEF 40 V/cm, comparison with surgery, after about 60 days until about 120 days
  survival: 40%
CT-26 colon carcinoma [4]; LEFCT-EC: drug + LEF 40 V/cm 12 min, 5 mm tumors
  cure rate: 83%
CT-26 colon carcinoma [4]; after 21 days
  tumor size with drug only relative to drug + LEF: about triple the size
CT-26 colon carcinoma [4]; drug alone, no LEF, intratumoral injection (5-FU intratumoral or intravenous), 5 mm tumors
  time after which half the mice died: about 48 days
CT-26 colon carcinoma [5]; 10 mm tumors
  tumor size with LEFCT-EC + BCNU relative to BCNU alone: approximately an order of magnitude smaller
  time after which all mice were dead: 90 days
  cure rate: over 80%
CT-26 colon carcinoma [5]; 15 mm tumors
  time after which all mice were dead: 87 days
  cure rate: 100%
CT-26 colon carcinoma [5]; LEF with BCNU, 15 mm tumors, after 100 days
  survival: 100%
CT-26 colon carcinoma [5]; LEFCT-EC with BCNU, 15 mm tumors, after 42 days
  tumor detection: no tumors were detected
CT-26 colon carcinoma [6]
  tumor growth with splenocytes from cured mice: completely prevent growth of tumors

## O=c1[nH]cc(F)c(=O)[nH]1 [5-FU, 5-fluorouracil]
CT-26 colon carcinoma [4]; 5-FU 100 mg/kg intratumoral or intravenous + LEF 40 V/cm 12 min
  time at which half of the mice were still alive: 80 days
B16-F10.9 melanoma [2]; [7]
  Tumor size (mean ± standard error): 143 ± 52 mm^3
B16-F10.9 melanoma [2]; [9]
  Tumor size (mean ± standard error): 460 ± 54 mm^3
